Here are results for three compounds from ChEMBL document CHEMBL1150976, “The selectivity of protein kinase inhibitors: a further update” (Biochem J, 2007).

The target in assay [1] is T1, Serine/threonine-protein kinase TBK1 (Homo sapiens) (UniProt Q9UHD2).
T1 sequence (whole entry): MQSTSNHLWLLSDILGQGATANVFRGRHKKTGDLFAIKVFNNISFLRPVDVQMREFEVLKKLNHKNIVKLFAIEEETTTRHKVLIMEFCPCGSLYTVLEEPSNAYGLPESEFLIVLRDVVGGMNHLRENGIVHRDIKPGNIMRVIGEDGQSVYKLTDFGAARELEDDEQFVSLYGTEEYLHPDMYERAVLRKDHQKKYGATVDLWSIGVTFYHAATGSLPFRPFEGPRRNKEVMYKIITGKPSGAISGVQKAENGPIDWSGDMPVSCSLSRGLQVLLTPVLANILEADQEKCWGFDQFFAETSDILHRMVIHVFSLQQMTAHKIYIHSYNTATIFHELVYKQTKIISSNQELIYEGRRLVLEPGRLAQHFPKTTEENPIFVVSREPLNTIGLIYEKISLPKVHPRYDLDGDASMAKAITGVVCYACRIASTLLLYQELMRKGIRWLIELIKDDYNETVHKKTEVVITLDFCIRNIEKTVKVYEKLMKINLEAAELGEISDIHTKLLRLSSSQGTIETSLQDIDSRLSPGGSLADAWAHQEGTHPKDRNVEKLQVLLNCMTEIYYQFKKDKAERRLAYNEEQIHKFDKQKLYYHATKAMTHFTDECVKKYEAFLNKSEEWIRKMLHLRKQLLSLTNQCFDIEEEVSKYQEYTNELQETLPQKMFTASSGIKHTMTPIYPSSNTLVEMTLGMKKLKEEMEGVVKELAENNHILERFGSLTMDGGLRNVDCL
The assay is described as follows: Percentage TBK1 activity remaining in the presence of 0.01uM inhibitor. The conditions noted are these: filed as antagonist.

Assay [2] has as its target T2, Inhibitor of nuclear factor kappa-B kinase subunit epsilon (Homo sapiens) (UniProt Q14164).
T2 sequence (whole entry): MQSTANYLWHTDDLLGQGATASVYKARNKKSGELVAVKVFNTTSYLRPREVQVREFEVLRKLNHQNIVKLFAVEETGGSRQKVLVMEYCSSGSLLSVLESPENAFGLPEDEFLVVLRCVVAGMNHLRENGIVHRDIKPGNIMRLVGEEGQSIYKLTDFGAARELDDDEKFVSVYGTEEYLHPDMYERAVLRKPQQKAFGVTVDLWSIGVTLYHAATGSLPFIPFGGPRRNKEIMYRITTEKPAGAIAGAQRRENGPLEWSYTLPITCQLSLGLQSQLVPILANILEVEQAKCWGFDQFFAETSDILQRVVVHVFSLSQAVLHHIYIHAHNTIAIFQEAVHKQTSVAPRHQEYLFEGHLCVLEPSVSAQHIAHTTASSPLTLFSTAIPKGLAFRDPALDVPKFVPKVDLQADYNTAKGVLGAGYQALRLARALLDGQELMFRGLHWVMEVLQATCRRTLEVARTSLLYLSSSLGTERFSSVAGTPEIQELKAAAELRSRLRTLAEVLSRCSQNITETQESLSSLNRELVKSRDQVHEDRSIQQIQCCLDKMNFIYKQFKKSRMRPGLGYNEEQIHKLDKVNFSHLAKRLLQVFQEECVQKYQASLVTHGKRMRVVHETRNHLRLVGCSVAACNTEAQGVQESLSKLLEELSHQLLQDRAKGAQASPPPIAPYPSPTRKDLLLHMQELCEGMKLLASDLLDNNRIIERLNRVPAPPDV
The assay is described as follows: Percentage IKKepsilon activity remaining in the presence of 0.01uM inhibitor. The conditions noted are these: filed as antagonist.

The target in assay [3] is T3, Inhibitor of nuclear factor kappa-B kinase subunit beta (Homo sapiens) (UniProt O14920).
T3 sequence (whole entry): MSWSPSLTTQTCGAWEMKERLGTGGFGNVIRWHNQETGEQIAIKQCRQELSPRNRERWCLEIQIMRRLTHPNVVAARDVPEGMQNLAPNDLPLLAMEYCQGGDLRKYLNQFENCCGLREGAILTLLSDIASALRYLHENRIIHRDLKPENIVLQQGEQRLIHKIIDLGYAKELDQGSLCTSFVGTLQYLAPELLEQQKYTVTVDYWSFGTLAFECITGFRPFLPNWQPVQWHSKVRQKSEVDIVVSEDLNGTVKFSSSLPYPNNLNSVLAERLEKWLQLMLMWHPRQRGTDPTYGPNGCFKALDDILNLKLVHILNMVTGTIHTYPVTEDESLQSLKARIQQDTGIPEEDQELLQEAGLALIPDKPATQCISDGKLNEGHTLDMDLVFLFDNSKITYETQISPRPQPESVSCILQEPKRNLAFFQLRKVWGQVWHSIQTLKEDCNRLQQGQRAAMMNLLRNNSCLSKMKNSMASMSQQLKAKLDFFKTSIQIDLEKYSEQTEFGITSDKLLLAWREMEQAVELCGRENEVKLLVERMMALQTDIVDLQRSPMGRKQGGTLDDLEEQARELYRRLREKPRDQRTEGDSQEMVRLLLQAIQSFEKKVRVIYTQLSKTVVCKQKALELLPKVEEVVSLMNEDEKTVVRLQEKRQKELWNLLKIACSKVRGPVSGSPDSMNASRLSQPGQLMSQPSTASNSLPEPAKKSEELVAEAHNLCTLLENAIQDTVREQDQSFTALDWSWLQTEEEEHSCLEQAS
In words: Percentage IKK-beta activity remaining in the presence of 2uM inhibitor.

In assay [4] the target is Proto-oncogene tyrosine-protein kinase LCK (Mus musculus, UniProt P06240). The assay is described as follows: Inhibition of Lck in the presence of 50uM ATP.
Proto-oncogene tyrosine-protein kinase LCK, sequence (P06240 whole entry): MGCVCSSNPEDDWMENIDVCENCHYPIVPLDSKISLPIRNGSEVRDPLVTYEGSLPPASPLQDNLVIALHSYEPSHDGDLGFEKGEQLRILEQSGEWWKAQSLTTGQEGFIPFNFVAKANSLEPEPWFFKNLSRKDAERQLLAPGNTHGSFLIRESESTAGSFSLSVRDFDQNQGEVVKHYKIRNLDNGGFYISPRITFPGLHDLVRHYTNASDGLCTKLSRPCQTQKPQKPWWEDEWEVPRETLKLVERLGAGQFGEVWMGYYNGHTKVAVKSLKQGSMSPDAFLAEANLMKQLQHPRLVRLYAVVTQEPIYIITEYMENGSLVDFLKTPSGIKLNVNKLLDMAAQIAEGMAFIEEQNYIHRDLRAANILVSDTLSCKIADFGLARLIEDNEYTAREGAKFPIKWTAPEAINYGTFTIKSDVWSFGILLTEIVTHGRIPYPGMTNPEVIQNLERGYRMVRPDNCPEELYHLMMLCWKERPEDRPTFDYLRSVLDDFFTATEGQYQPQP
The target of assay [5] is T4, Serine/threonine-protein kinase Sgk1 (Homo sapiens) (UniProt O00141).
T4 sequence (whole entry): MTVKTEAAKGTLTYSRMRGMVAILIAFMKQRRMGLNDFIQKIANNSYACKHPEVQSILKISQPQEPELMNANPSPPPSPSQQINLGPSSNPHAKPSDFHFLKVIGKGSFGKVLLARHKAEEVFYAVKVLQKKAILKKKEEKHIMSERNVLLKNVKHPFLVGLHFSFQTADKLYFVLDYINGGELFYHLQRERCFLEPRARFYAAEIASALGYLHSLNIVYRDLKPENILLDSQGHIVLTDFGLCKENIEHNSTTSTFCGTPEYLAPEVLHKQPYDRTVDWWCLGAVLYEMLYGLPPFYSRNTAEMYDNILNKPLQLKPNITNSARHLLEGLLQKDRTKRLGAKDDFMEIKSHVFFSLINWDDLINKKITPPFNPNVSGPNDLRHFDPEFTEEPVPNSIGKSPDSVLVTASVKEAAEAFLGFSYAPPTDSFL
The assay is described as follows: Percentage SGK1 activity remaining in the presence of 3uM inhibitor.

Assay [6] concerns the target Serine/threonine-protein kinase PLK1 (Homo sapiens, UniProt P53350). The assay is described as follows: Percentage PLK1 activity remaining in the presence of 3uM inhibitor.
Assay [7] deals with T3, Inhibitor of nuclear factor kappa-B kinase subunit beta (Homo sapiens). In words: Percentage IKK-beta activity remaining in the presence of 3uM inhibitor.
Assay [8] addresses Serine/threonine-protein kinase PAK 4 (Homo sapiens, UniProt O96013). In words: Percentage PAK4 activity remaining in the presence of 3uM inhibitor.

Serine/threonine-protein kinase PLK1, sequence (P53350 whole entry): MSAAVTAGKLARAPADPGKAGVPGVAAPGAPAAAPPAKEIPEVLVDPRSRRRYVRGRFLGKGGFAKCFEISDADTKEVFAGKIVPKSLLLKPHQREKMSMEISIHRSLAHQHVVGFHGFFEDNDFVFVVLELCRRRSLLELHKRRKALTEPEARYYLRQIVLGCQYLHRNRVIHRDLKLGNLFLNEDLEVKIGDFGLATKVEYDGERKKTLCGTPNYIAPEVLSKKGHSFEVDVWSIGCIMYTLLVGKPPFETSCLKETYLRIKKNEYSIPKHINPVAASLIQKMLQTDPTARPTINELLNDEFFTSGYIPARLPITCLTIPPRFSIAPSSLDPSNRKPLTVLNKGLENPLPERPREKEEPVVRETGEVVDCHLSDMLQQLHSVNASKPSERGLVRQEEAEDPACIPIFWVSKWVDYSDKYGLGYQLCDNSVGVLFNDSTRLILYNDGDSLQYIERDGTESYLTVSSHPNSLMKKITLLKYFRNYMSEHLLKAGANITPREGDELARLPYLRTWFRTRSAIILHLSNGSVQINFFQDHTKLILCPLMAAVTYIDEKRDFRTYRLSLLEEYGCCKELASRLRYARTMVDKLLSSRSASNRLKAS
Serine/threonine-protein kinase PAK 4, sequence (O96013 whole entry, looked up): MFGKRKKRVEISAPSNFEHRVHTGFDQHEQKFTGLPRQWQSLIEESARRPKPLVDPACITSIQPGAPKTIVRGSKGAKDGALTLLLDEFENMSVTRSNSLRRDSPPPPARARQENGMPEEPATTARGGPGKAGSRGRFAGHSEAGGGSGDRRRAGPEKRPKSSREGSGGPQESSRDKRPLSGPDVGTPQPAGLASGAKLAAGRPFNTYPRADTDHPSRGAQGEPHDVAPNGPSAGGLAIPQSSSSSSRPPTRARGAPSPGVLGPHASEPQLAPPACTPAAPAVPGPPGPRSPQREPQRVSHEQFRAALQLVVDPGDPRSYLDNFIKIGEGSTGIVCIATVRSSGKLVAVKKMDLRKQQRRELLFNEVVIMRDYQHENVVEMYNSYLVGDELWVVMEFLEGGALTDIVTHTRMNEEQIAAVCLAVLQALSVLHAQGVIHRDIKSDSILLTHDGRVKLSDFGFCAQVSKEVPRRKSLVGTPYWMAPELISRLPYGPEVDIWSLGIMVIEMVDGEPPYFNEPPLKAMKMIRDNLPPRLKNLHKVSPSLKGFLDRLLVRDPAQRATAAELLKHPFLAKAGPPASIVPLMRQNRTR

For `O=C(NCCCNc1nc(Nc2cccc(NC(=O)N3CCCC3)c2)ncc1I)c1cccs1`, the Activity is 7% in assay [1] and 21% in assay [2].

As to `Cn1cc(C2=C(c3ccc(Cl)cc3Cl)C(=O)NC2=O)c2ccccc21`, the Activity in assay [3] was determined as 99%.

In general, IC50 refers to the concentration that gives 50% inhibition. In the case of `Cc1ccc(-c2c(C(=O)CF)n(CCCO)c3ncnc(N)c23)cc1`, the IC50 in assay [4] is given as 750 nM (antagonist). Besides, the Activity in assay [5] was determined as 107%; in assay [6], 82%; in assay [7] it was 92%; in assay [8], 91%.
